Earlier results as cited in patent US20140271931A1, “Anti-Acne Topical Films” (Perosphere Inc., priority 2013, published 2014).

Tests used:
[1] = system: cultured normal and transformed mammalian cells
[2] = system: cell interior

| SMILES | solubility in water | inhibition of growth of cultured normal and transformed mammalian cells [1] | penetration of the cell interior compared with picolinic acid [2] |
| --- | --- | --- | --- |
| O=C(O)c1ccccn1 [Picolinic acid, 2-pyridine carboxylic acid] | readily soluble in water | inhibits the growth |  |
| CCCCc1ccc(C(=O)O)nc1 [Fusaric acid] |  |  | penetrates the cell interior much more easily than picolinic acid |
